Source: the supplement of paper PMC10627819

Tests used:
S. pneumoniae D39V [1] = assay: fitness (endpoint OD595 vs no drug) (fraction); higher = more growth
How it was run: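 Each well of a 384-well plate received 30 µl of culture at OD595 0.01, or 55 µl for S. pneumoniae. TSB, LB Lennox or CY served as media at 37 °C. OD595 was taken every 30 min for 14 h and corrected by subtracting the first reading. Fitness is the optical density at stationary-phase entry divided by the robust mean of no-drug controls, capped at 1.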

B. subtilis 168 = assay: Bliss interaction score (quartile over a dose matrix) (fitness difference); higher = more antagonism (negative = synergy)
How it was run: (§1)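 Growth in each well was taken as OD595 at entry into stationary phase. Dividing by the plate's robust no-drug mean and capping at 1 gave fitness, and single-drug fitness was inferred from the combination data. The Bliss score, observed minus product-expected fitness, is summarised by quartiles over technical, biological and donor/recipient replicates.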

S. aureus DSM 20231 = assay: as above
How it was run: as §1

S. aureus Newman = assay: as above
How it was run: as §1

S. pneumoniae D39V [2] = assay: as above
How it was run: as §1

[3] = first compound 0.25 µg/mL, partner 1.073 µg/mL
[4] = first compound 0.25 µg/mL, partner 2.145 µg/mL
[5] = first compound 0.25 µg/mL, partner 4.29 µg/mL
[6] = first compound 0.5 µg/mL, partner 1.073 µg/mL
[7] = first compound 0.5 µg/mL, partner 1.25 µg/mL
[8] = first compound 0.5 µg/mL, partner 2.145 µg/mL
[9] = first compound 0.5 µg/mL, partner 4.29 µg/mL
[10] = first compound 0.5 µg/mL, partner 5 µg/mL
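For Bliss interaction score (quartile over a dose matrix) in this document: first quartile when negative (synergy) and third quartile when positive (antagonism).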

O=C(O)c1cn(C2CC2)c2cc(N3CCNCC3)c(F)cc2c1=O [Ciprofloxacin] + CO[C@H]1/C=C/O[C@@]2(C)Oc3c(C)c(O)c4c(O)c(c(/C=N/N5CCN(C)CC5)c(O)c4c3C2=O)NC(=O)/C(C)=C\C=C\[C@H](C)[C@H](O)[C@@H](C)[C@@H](O)[C@@H](C)[C@H](OC(C)=O)[C@@H]1C [Rifampicin]
fitness (S. pneumoniae D39V [1]; first compound 0.125 µg/mL, partner 0.025 µg/mL): 0.954
fitness (S. pneumoniae D39V [1]; first compound 0.125 µg/mL, partner 0.2 µg/mL, one replicate): 0
fitness (S. pneumoniae D39V [1]; first compound 0.25 µg/mL, partner 0.025 µg/mL): 0.84
fitness (S. pneumoniae D39V [1]; first compound 0.25 µg/mL, partner 0.2 µg/mL, one replicate): 0
fitness (S. pneumoniae D39V [1]; first compound 0.5 µg/mL, partner 0.025 µg/mL): 0.795
fitness (S. pneumoniae D39V [1]; first compound 0.5 µg/mL, partner 0.05 µg/mL): 0.688
fitness (S. pneumoniae D39V [1]; first compound 0.5 µg/mL, partner 0.2 µg/mL, one replicate): 0
Bliss interaction score (B. subtilis 168): 0.162
Bliss interaction score (S. aureus DSM 20231): -0.0712
Bliss interaction score (S. aureus Newman): 0.0614
Bliss interaction score (S. pneumoniae D39V [2]): 0.0532

COc1cccc2c1C(=O)c1c(O)c3c(c(O)c1C2=O)C[C@@](O)(C(=O)CO)C[C@@H]3O[C@H]1C[C@H](N)[C@H](O)[C@H](C)O1 [Doxorubicin] + O=C1CN(/N=C/c2ccc([N+](=O)[O-])o2)C(=O)N1 [Nitrofurantoin]
fitness (S. pneumoniae D39V [1]; first compound 0.25 µg/mL, partner 1.285 µg/mL): 0.935
fitness (S. pneumoniae D39V [1]; first compound 0.25 µg/mL, partner 2 µg/mL): 0.918
fitness (S. pneumoniae D39V [1]; first compound 0.25 µg/mL, partner 2.57 µg/mL): 0.91
fitness (S. pneumoniae D39V [1]; first compound 0.25 µg/mL, partner 4 µg/mL): 0.857
fitness (S. pneumoniae D39V [1]; first compound 0.25 µg/mL, partner 5.14 µg/mL, one replicate): 0.822
fitness (S. pneumoniae D39V [1]; first compound 0.25 µg/mL, partner 8 µg/mL): 0.465
fitness (S. pneumoniae D39V [1]; first compound 0.5 µg/mL, partner 1.285 µg/mL): 0.925
fitness (S. pneumoniae D39V [1]; first compound 0.5 µg/mL, partner 2 µg/mL): 0.946
fitness (S. pneumoniae D39V [1]; first compound 0.5 µg/mL, partner 2.57 µg/mL): 0.94
fitness (S. pneumoniae D39V [1]; first compound 0.5 µg/mL, partner 4 µg/mL): 0.795
fitness (S. pneumoniae D39V [1]; first compound 0.5 µg/mL, partner 5.14 µg/mL, one replicate): 0.858
fitness (S. pneumoniae D39V [1]; first compound 0.5 µg/mL, partner 8 µg/mL): 0.436
fitness (S. pneumoniae D39V [1]; first compound 1 µg/mL, partner 1.285 µg/mL): 0.825
fitness (S. pneumoniae D39V [1]; first compound 1 µg/mL, partner 2 µg/mL): 0.814
fitness (S. pneumoniae D39V [1]; first compound 1 µg/mL, partner 2.57 µg/mL): 0.809
fitness (S. pneumoniae D39V [1]; first compound 1 µg/mL, partner 4 µg/mL): 0.721
fitness (S. pneumoniae D39V [1]; first compound 1 µg/mL, partner 5.14 µg/mL, one replicate): 0.695
fitness (S. pneumoniae D39V [1]; first compound 1 µg/mL, partner 8 µg/mL): 0.405
Bliss interaction score (B. subtilis 168): -0.221
Bliss interaction score (S. aureus DSM 20231): -0.0576
Bliss interaction score (S. aureus Newman): -0.0388
Bliss interaction score (S. pneumoniae D39V [2]): 0.0747

COc1cccc2c1C(=O)c1c(O)c3c(c(O)c1C2=O)C[C@@](O)(C(=O)CO)C[C@@H]3O[C@H]1C[C@H](N)[C@H](O)[C@H](C)O1 [Doxorubicin] + Clc1ccc(COC(Cn2ccnc2)c2ccc(Cl)cc2Cl)c(Cl)c1 [Miconazole]
fitness (S. pneumoniae D39V [1]; [3]): 0.953
fitness (S. pneumoniae D39V [1]; first compound 0.25 µg/mL, partner 1.25 µg/mL): 0.921
fitness (S. pneumoniae D39V [1]; [4]): 0.921
fitness (S. pneumoniae D39V [1]; first compound 0.25 µg/mL, partner 2.5 µg/mL): 0.949
fitness (S. pneumoniae D39V [1]; [5]): 0.646
fitness (S. pneumoniae D39V [1]; first compound 0.25 µg/mL, partner 5 µg/mL): 0.947
fitness (S. pneumoniae D39V [1]; [6]): 0.967
fitness (S. pneumoniae D39V [1]; [7]): 0.967
fitness (S. pneumoniae D39V [1]; [8]): 0.978
fitness (S. pneumoniae D39V [1]; first compound 0.5 µg/mL, partner 2.5 µg/mL): 0.966
fitness (S. pneumoniae D39V [1]; [9]): 0.848
fitness (S. pneumoniae D39V [1]; [10]): 0.983
fitness (S. pneumoniae D39V [1]; first compound 1 µg/mL, partner 1.073 µg/mL): 0.961
fitness (S. pneumoniae D39V [1]; first compound 1 µg/mL, partner 1.25 µg/mL): 0.845
fitness (S. pneumoniae D39V [1]; first compound 1 µg/mL, partner 2.145 µg/mL): 0.914
fitness (S. pneumoniae D39V [1]; first compound 1 µg/mL, partner 2.5 µg/mL): 0.901
fitness (S. pneumoniae D39V [1]; first compound 1 µg/mL, partner 4.29 µg/mL): 0.791
fitness (S. pneumoniae D39V [1]; first compound 1 µg/mL, partner 5 µg/mL): 0.921
Bliss interaction score (B. subtilis 168): 0.0755
Bliss interaction score (S. aureus DSM 20231): -0.0766
Bliss interaction score (S. aureus Newman): -0.074
Bliss interaction score (S. pneumoniae D39V [2]): 0.0804

O=C(O)c1cn(C2CC2)c2cc(N3CCNCC3)c(F)cc2c1=O [Ciprofloxacin] + Clc1ccc(COC(Cn2ccnc2)c2ccc(Cl)cc2Cl)c(Cl)c1 [Miconazole]
fitness (S. pneumoniae D39V [1]; first compound 0.125 µg/mL, partner 1.073 µg/mL): 0.987
fitness (S. pneumoniae D39V [1]; first compound 0.125 µg/mL, partner 1.25 µg/mL): 0.939
fitness (S. pneumoniae D39V [1]; first compound 0.125 µg/mL, partner 2.145 µg/mL): 0.966
fitness (S. pneumoniae D39V [1]; first compound 0.125 µg/mL, partner 2.5 µg/mL): 0.925
fitness (S. pneumoniae D39V [1]; first compound 0.125 µg/mL, partner 4.29 µg/mL): 0.926
fitness (S. pneumoniae D39V [1]; first compound 0.125 µg/mL, partner 5 µg/mL): 0.908
fitness (S. pneumoniae D39V [1]; [3]): 0.964
fitness (S. pneumoniae D39V [1]; first compound 0.25 µg/mL, partner 1.25 µg/mL, one replicate): 0.821
fitness (S. pneumoniae D39V [1]; [4]): 0.965
fitness (S. pneumoniae D39V [1]; first compound 0.25 µg/mL, partner 2.5 µg/mL, one replicate): 0.697
fitness (S. pneumoniae D39V [1]; [5]): 0.864
fitness (S. pneumoniae D39V [1]; first compound 0.25 µg/mL, partner 5 µg/mL, one replicate): 0.721
fitness (S. pneumoniae D39V [1]; [6]): 0.761
fitness (S. pneumoniae D39V [1]; [7]): 0.679
fitness (S. pneumoniae D39V [1]; [8]): 0.76
fitness (S. pneumoniae D39V [1]; [9]): 0.821
fitness (S. pneumoniae D39V [1]; [10]): 0.646
Bliss interaction score (B. subtilis 168): -0.0762
Bliss interaction score (S. aureus DSM 20231): 0.0295
Bliss interaction score (S. aureus Newman): 0.0815
Bliss interaction score (S. pneumoniae D39V [2]): 0.0741

CO/N=C(\C(=O)N[C@@H]1C(=O)N2C(C(=O)O)=C(COC(C)=O)CS[C@H]12)c1csc(N)n1 [Cefotaxime] + O=C1CN(/N=C/c2ccc([N+](=O)[O-])o2)C(=O)N1 [Nitrofurantoin]
fitness (S. pneumoniae D39V [1]; first compound 0.0018 µg/mL, partner 1.285 µg/mL): 0.974
fitness (S. pneumoniae D39V [1]; first compound 0.0018 µg/mL, partner 2 µg/mL): 0.94
fitness (S. pneumoniae D39V [1]; first compound 0.0018 µg/mL, partner 2.57 µg/mL): 0.959
fitness (S. pneumoniae D39V [1]; first compound 0.0018 µg/mL, partner 4 µg/mL): 0.944
fitness (S. pneumoniae D39V [1]; first compound 0.0018 µg/mL, partner 5.14 µg/mL, one replicate): 0.981
fitness (S. pneumoniae D39V [1]; first compound 0.0018 µg/mL, partner 8 µg/mL): 0.873
fitness (S. pneumoniae D39V [1]; first compound 0.0035 µg/mL, partner 1.285 µg/mL): 0.963
fitness (S. pneumoniae D39V [1]; first compound 0.0035 µg/mL, partner 2 µg/mL): 0.92
fitness (S. pneumoniae D39V [1]; first compound 0.0035 µg/mL, partner 2.57 µg/mL): 0.965
fitness (S. pneumoniae D39V [1]; first compound 0.0035 µg/mL, partner 4 µg/mL): 0.916
fitness (S. pneumoniae D39V [1]; first compound 0.0035 µg/mL, partner 5.14 µg/mL, one replicate): 0.945
fitness (S. pneumoniae D39V [1]; first compound 0.0035 µg/mL, partner 8 µg/mL): 0.822
fitness (S. pneumoniae D39V [1]; first compound 0.007 µg/mL, partner 1.285 µg/mL): 0.923
fitness (S. pneumoniae D39V [1]; first compound 0.007 µg/mL, partner 2 µg/mL): 0.844
fitness (S. pneumoniae D39V [1]; first compound 0.007 µg/mL, partner 2.57 µg/mL): 0.923
fitness (S. pneumoniae D39V [1]; first compound 0.007 µg/mL, partner 4 µg/mL): 0.821
fitness (S. pneumoniae D39V [1]; first compound 0.007 µg/mL, partner 5.14 µg/mL, one replicate): 0.894
fitness (S. pneumoniae D39V [1]; first compound 0.007 µg/mL, partner 8 µg/mL): 0.733
Bliss interaction score (B. subtilis 168): -0.157
Bliss interaction score (S. aureus DSM 20231): 0.0224
Bliss interaction score (S. aureus Newman): 0.0592
Bliss interaction score (S. pneumoniae D39V [2]): 0.142

Cc1ncc([N+](=O)[O-])n1CCO [Metronidazole] + CO[C@H]1/C=C/O[C@@]2(C)Oc3c(C)c(O)c4c(O)c(c(/C=N/N5CCN(C)CC5)c(O)c4c3C2=O)NC(=O)/C(C)=C\C=C\[C@H](C)[C@H](O)[C@@H](C)[C@@H](O)[C@@H](C)[C@H](OC(C)=O)[C@@H]1C [Rifampicin]
fitness (S. pneumoniae D39V [1]; first compound 1.073 µg/mL, partner 0.05 µg/mL): 0.881
fitness (S. pneumoniae D39V [1]; first compound 1.073 µg/mL, partner 0.1 µg/mL): 0.577
fitness (S. pneumoniae D39V [1]; first compound 1.073 µg/mL, partner 0.2 µg/mL): 0.302
fitness (S. pneumoniae D39V [1]; first compound 1.25 µg/mL, partner 0.025 µg/mL, one replicate): 0.897
fitness (S. pneumoniae D39V [1]; first compound 1.25 µg/mL, partner 0.05 µg/mL): 0.81
fitness (S. pneumoniae D39V [1]; first compound 1.25 µg/mL, partner 0.2 µg/mL, one replicate): 0
fitness (S. pneumoniae D39V [1]; first compound 2.145 µg/mL, partner 0.05 µg/mL): 0.907
fitness (S. pneumoniae D39V [1]; first compound 2.145 µg/mL, partner 0.1 µg/mL): 0.617
fitness (S. pneumoniae D39V [1]; first compound 2.145 µg/mL, partner 0.2 µg/mL): 0.35
fitness (S. pneumoniae D39V [1]; first compound 2.5 µg/mL, partner 0.025 µg/mL, one replicate): 0.907
fitness (S. pneumoniae D39V [1]; first compound 2.5 µg/mL, partner 0.05 µg/mL): 0.83
fitness (S. pneumoniae D39V [1]; first compound 2.5 µg/mL, partner 0.2 µg/mL, one replicate): 0
fitness (S. pneumoniae D39V [1]; first compound 4.29 µg/mL, partner 0.05 µg/mL): 0.84
fitness (S. pneumoniae D39V [1]; first compound 4.29 µg/mL, partner 0.1 µg/mL): 0.677
fitness (S. pneumoniae D39V [1]; first compound 5 µg/mL, partner 0.025 µg/mL, one replicate): 0.892
fitness (S. pneumoniae D39V [1]; first compound 5 µg/mL, partner 0.05 µg/mL): 0.839
fitness (S. pneumoniae D39V [1]; first compound 5 µg/mL, partner 0.2 µg/mL, one replicate): 0
Bliss interaction score (B. subtilis 168): 0.0335
Bliss interaction score (S. aureus DSM 20231): -0.0591
Bliss interaction score (S. aureus Newman): 0.0408
Bliss interaction score (S. pneumoniae D39V [2]): 0.104
